Results as given in patent US10519138B2, “Modulators of SOCE, compositions, and uses thereof” (Università degli Studi del Piemonte Orientale “Amedeo …, priority 2016, dated 2019).

Tested on: Store Operated Calcium Entry (SOCE) in BV-2 cells
Assay: Fluo-4 fluorimetric assay of tBHQ-induced store operated calcium entry in BV-2 cells
Type: cell-based, mouse
Conditions: Mus musculus, 10 μM, SOCE inhibition based on tBHQ-induced calcium influx
Experimental: (A) BV-2 cells were plated in poly-d-lysine coated 24-well plate and incubated overnight. After 24 hours, cells were loaded with 2 μM Fluo-4 and placed in an extracellular solution containing 0 mM Ca^2+. Stores were depleted with 50 μM tBHQ and calcium influx was stimulated by the addition of 2 mM Ca^2+ alone (Ctrl), or in conbination with: compound with no activity (NM-3A), and compounds that positively (4-(1-(4-(3,5-bis(trifluoromethyl)-1H-pyrazol-1-yl)phenyl)-1H-1,2,3-triazol-4-yl)benzoic acid) and negatively (3-(1-(4-(4-(ethoxycarbonyl)-5-(trifluoromethyl)-1H-pyrazol-1-yl)phenyl)-1H-1,2,3-triazol-4-yl)benzoic acid) regulate SOCE. Calcium responses are expressed as changes in fluorescence intensity before and after the addition of selected modulators. (B) BV-2 cells were assayed for a calcium response to different concentrations of 3-(1-(4-(4-(ethoxycarbonyl)-5-(trifluoromethyl)-1H-pyrazol-1-yl)phenyl)-1H-1,2,3-triazol-4-yl)benzoic acid and 4-(1-(4-(3,5-bis(trifluoromethyl)-1H-pyrazol-1-yl)phenyl)-1H-1,2,3-triazol-4-yl)benzoic acid (0.1-0.3-1-3-10-30-100 μM) using Fluo-4 fluorimetric assay. Concentration-response curves represent the AUC % of both compounds as compared to positive control.
Immortalized primary mouse microglial BV-2 cells were obtained from ATCC (ATCC® CRL-2540™, Rockville, Md., USA) and were cultured in Dulbecco's Modified Eagle's Medium (DMEM; Sigma-Aldrich, Italy), supplemented with 10% heat-inactivated FBS (Gibco, Italy), 1-glutamine 50 mg/mL (Sigma-Aldrich, Italy), penicillin 10 U/mL and streptomycin […] (Sigma-Aldrich, Italy) at 37° C., under a 5% CO2 humidified atmosphere. For experiments, the cells were plated 2×10^4 per ml in 24 well plates) or onto glass coverslips at concentrations of 4×10^4 per mL (24 mm diame-ter coverslips in 6 well plates).
BV-2 cells were loaded with 5 μM Fluo-4 AM in presence of 0.02% of Pluronic-127 (both from Life Technologies, Italy) and 10 μM sulfinpyrazone in Krebs-Ringer buffer (KRB, 135 mM NaCl, 5 mM KCl, 0.4 mM KH2PO4, 1 mM MgSO4, 5.5 mM glucose, 20 mM HEPES, pH 7.4) containing 2 mM CaCl2 (30 min, room temperature). Subsequently, cells were washed and incubated with KRB for other 30 min to allow de-esterification of Fluo-4 AM. Experiments were carried out prior to and during exposure of the cells to the Ca^2+-free solution. In the absence of Ca^2+, the intracellular Ca^2+ stores were depleted by 2,5-t-butylhydroquinone (tBHQ, 50 μM; Sigma-Aldrich, Italy), a SERCA poison, and then calcium 2 mM was re-added to the extracellular solution. Fluorescence is then monitored sequentially for a second in each well for 600 seconds with excitation at 494 nm and an emission wavelength at 516 nm on the V3 Victor plate-reader (Perkin Elmer), generating time-curves for each well. Data were analysed using Microsoft Excel and GraphPad Prism.
The percentage of SOCE inhibition for each compound was determined based on value of tBHQ-induced calcium influx into BV-2 cells (Table 2).

Structure (SMILES) | inhibition at 10 µM
FC(F)(F)c1cc(C(F)(F)F)n(-c2ccc(-n3cc(-c4ccccc4)nn3)cc2)n1 [1-(4-(3,5-bis(trifluoromethyl)-1H-pyrazol-1-yl)phenyl)-4-phenyl-1H-1,2,3-triazole] | 0.84%
Oc1cccc(-c2cn(-c3ccc(-n4nc(C(F)(F)F)cc4C(F)(F)F)cc3)nn2)c1 [3-(1-(4-(3,5-bis(trifluoromethyl)-1H-pyrazol-1-yl)phenyl)-1H-1,2,3-triazol-4-yl)phenol] | 4.06%
CCCC(C)OC(=O)c1cnn(-c2ccc(-n3cc(-c4cccc(C(=O)O)c4)nn3)cc2)c1C(F)(F)F (stereo not shown) [3-(1-(4-(4-((pentan-2-yloxy)carbonyl)-5-(trifluoromethyl)-1H-pyrazol-1-yl)phenyl)-1H-1,2,3-triazol-4-yl)benzoic acid] | 91.9%
O=C(O)CCCc1cn(-c2ccc(-n3nc(C(F)(F)F)cc3C(F)(F)F)cc2)nn1 [4-(1-(4-(3,5-bis(trifluoromethyl)-1H-pyrazol-1-yl)phenyl)-1H-1,2,3-triazol-4-yl)butanoic acid] | 19.9%
COc1ccc(-n2cc(-c3ccc(-n4nc(C(F)(F)F)cc4C(F)(F)F)cc3)nn2)cc1OC [4-(4-(3,5-bis(trifluoromethyl)-1H-pyrazol-1-yl)phenyl)-1-(3,4-dimethoxyphenyl)-1H-1,2,3-triazole] | 5.7%
COc1ccc(-n2cc(-c3ccc(-n4nc(C(F)(F)F)cc4C(F)(F)F)cc3)nn2)cc1 [4-(4-(3,5-bis(trifluoromethyl)-1H-pyrazol-1-yl)phenyl)-1-(4-methoxyphenyl)-1H-1,2,3-triazole] | 21.3%
O=C(O)CCCn1cc(-c2ccc(-n3nc(C(F)(F)F)cc3C(F)(F)F)cc2)nn1 [4-(4-(4-(3,5-bis(trifluoromethyl)-1H-pyrazol-1-yl)phenyl)-1H-1,2,3-triazol-1-yl)butanoic acid] | 18.3%
CCOC(=O)c1cnn(-c2ccc(-c3cn(-c4ccc(C(=O)O)cc4)nn3)cc2)c1C(F)(F)F [4-(4-(4-(4-(ethoxycarbonyl)-5-(trifluoromethyl)-1H-pyrazol-1-yl)phenyl)-1H-1,2,3-triazol-1-yl)benzoic acid] | 19.8%
CCOC(=O)c1cnn(-c2ccc(-c3cn(-c4ccc(OC)c(OC)c4)nn3)cc2)c1C(F)(F)F [ethyl 1-(4-(1-(3,4-dimethoxyphenyl)-1H-1,2,3-triazol-4-yl)phenyl)-5-(trifluoromethyl)-1H-pyrazole-4-carboxylate] | 12.8%
CCOC(=O)c1cnn(-c2ccc(-c3cn(-c4cccc(N)c4)nn3)cc2)c1C(F)(F)F [ethyl 1-(4-(1-(3-aminophenyl)-1H-1,2,3-triazol-4-yl)phenyl)-5-(trifluoromethyl)-1H-pyrazole-4-carboxylate] | 23%
CCOC(=O)c1cnn(-c2ccc(-c3cn(-c4ccc(OC)cc4)nn3)cc2)c1C(F)(F)F [ethyl 1-(4-(1-(4-methoxyphenyl)-1H-1,2,3-triazol-4-yl)phenyl)-5-(trifluoromethyl)-1H-pyrazole-4-carboxylate] | 16.9%
CCOC(=O)c1cnn(-c2ccc(-c3cn(-c4cccnc4)nn3)cc2)c1C(F)(F)F [ethyl 1-(4-(1-(pyridin-3-yl)-1H-1,2,3-triazol-4-yl)phenyl)-5-(trifluoromethyl)-1H-pyrazole-4-carboxylate] | 37.4%
CCOC(=O)c1cnn(-c2ccc(-c3cn(-c4ccncc4)nn3)cc2)c1C(F)(F)F [ethyl 1-(4-(1-(pyridin-4-yl)-1H-1,2,3-triazol-4-yl)phenyl)-5-(trifluoromethyl)-1H-pyrazole-4-carboxylate] | 20%
CCOC(=O)c1cnn(-c2ccc(-n3cc(-c4ccccc4NC(C)=O)nn3)cc2)c1C(F)(F)F [ethyl 1-(4-(4-(2-acetamidophenyl)-1H-1,2,3-triazol-1-yl)phenyl)-5-(trifluoromethyl)-1H-pyrazole-4-carboxylate] | 28%
CCOC(=O)c1cnn(-c2ccc(-n3cc(-c4ccc(OC)c(OC)c4)nn3)cc2)c1C(F)(F)F [ethyl 1-(4-(4-(3,4-dimethoxyphenyl)-1H-1,2,3-triazol-1-yl)phenyl)-5-(trifluoromethyl)-1H-pyrazole-4-carboxylate] | 17.2%
CCOC(=O)c1cnn(-c2ccc(-n3cc(-c4cccc(C(=O)OC)c4)nn3)cc2)c1C(F)(F)F [ethyl 1-(4-(4-(3-(methoxycarbonyl)phenyl)-1H-1,2,3-triazol-1-yl)phenyl)-5-(trifluoromethyl)-1H-pyrazole-4-carboxylate] | 21.8%
CCOC(=O)c1cnn(-c2ccc(-n3cc(-c4cccc(N)c4)nn3)cc2)c1C(F)(F)F [ethyl 1-(4-(4-(3-aminophenyl)-1H-1,2,3-triazol-1-yl)phenyl)-5-(trifluoromethyl)-1H-pyrazole-4-carboxylate] | 24.8%
CCOC(=O)c1cnn(-c2ccc(-n3cc(-c4cccc(C(N)=O)c4)nn3)cc2)c1C(F)(F)F [ethyl 1-(4-(4-(3-carbamoylphenyl)-1H-1,2,3-triazol-1-yl)phenyl)-5-(trifluoromethyl)-1H-pyrazole-4-carboxylate] | 2.27%
CCOC(=O)c1cnn(-c2ccc(-n3cc(-c4cccc(O)c4)nn3)cc2)c1C(F)(F)F [ethyl 1-(4-(4-(3-hydroxyphenyl)-1H-1,2,3-triazol-1-yl)phenyl)-5-(trifluoromethyl)-1H-pyrazole-4-carboxylate] | 3.53%
CCOC(=O)c1cnn(-c2ccc(-n3cc(-c4ccc(N)cc4)nn3)cc2)c1C(F)(F)F [ethyl 1-(4-(4-(4-aminophenyl)-1H-1,2,3-triazol-1-yl)phenyl)-5-(trifluoromethyl)-1H-pyrazole-4-carboxylate] | 8.31%
CCOC(=O)c1cnn(-c2ccc(-n3cc(-c4ccc(OC)cc4)nn3)cc2)c1C(F)(F)F [ethyl 1-(4-(4-(4-methoxyphenyl)-1H-1,2,3-triazol-1-yl)phenyl)-5-(trifluoromethyl)-1H-pyrazole-4-carboxylate] | 4.77%
CCOC(=O)c1cnn(-c2ccc(-n3cc(-c4ccccc4)nn3)cc2)c1C(F)(F)F [ethyl 1-(4-(4-phenyl-1H-1,2,3-triazol-1-yl)phenyl)-5-(trifluoromethyl)-1H-pyrazole-4-carboxylate] | 14.3%
